Data published in patent US5229413A, “Compositions containing indole-2-carboxylate compounds for treatment of CNS disorders” (G. D. Searle & Co., priority 1992, dated 1993).
Where two headings read alike, the source gives them in different places.

Legend:
[1] = biological target: T1, strychnineinsensitive glycine recognition site (NMDA receptor-ion channel complex) (Rattus norvegicus, UniProt P35439); assay: Glycine binding assay, [3H]glycine, synaptic plasma membranes
T1 construct: Synaptic plasma membranes (SPM) were prepared from rat forebrain; from tissue; host or cells: rat forebrain synaptic plasma membranes
Method: Synaptic plasma membranes (SPM) were prepared from rat forebrain and stored as previously described [J. B. Monahan and J. Michel, J. Neurochem, 48, 1699-1708 (1987)]. Frozen membranes were thawed and diluted 1:20 with 0.04% triton X-100 in 50 mM tris/acetate (pH 7.4). Following incubation at 37° C. for 30 min., the SPM were collected by centrifugation at 95,000 X g for 15 min. The pellet was resuspended in 50 mM tris/acetate (pH 7.4, triton-free) and hand-homogenized five times. The membranes were again centrifuged as above. The pellet was washed two additional times with 50 mM tris/acetate (without homogenization) and centrifuged. The final pellet was resuspended with homogenization in 50 mM tris/acetate.
In the general receptor binding assay procedure, 10 nM [^3 H]glycine was added to the appropriate concentration of the test compounds and the assay initiated by the addition of 0.2-0.4 mg of ice cold SPM. The assay, which was done in 1.5 ml centrifuge tubes, was adjusted to a total volume of 1.0 ml with all additions being made in 50 mM tris/ acetate, pH 7.4 at 4° C. After a 10 minute incubation at 2° C., the samples were centrifuged for 15 min. at 12,000 g (4° C.) in a Beckman Microfuge 12. The supernatant was aspirated and the tube tip containing the pelleted membranes cut off and agitated in 0.5 ml of Beckman BTS-450 tissue solubilizer for a minimum of 6 hours at room temperature. Beckman MP scintillation cocktail (5 ml) containing 7 ml/liter acetic acid was then added and the samples counted on a Beckman LS 5800 liquid scintillation counter with automatic corrections for quenching and counting efficiency. […] The binding of [^3 H]glycine to the SPM was analyzed using Scatchard and Hill transformations and the Ki for other compounds was determined using logit-log analysis. Calculations and regression analysis were performed using templates developed for Lotus 123 as previously described [Pullan et al, Id.].

[2] = biological target: N-methyl-D-aspartate (NMDA) receptor site; assay: Glutamate (NMDA) binding assay, L-[3H]glutamate, synaptic plasma membranes; conditions: L-[3H]glutamate 12.5 nM, pH 7.4, 0-4° C.; read-out: Ki apparent, NMDA
Method: The purpose of this assay is to determine the binding affinity of a compound of Formula I for the N-methyl-D-aspartate (NMDA) receptor site. This procedure was carried out as follows:
Synaptic plasma membranes (SPM) were prepared as previously described [Monahan, J. B. and Michel, J., "Identification and Characterization of an N-methyl-D-aspartate-specific L-[^3 H]glutamate Recognition Site in Synaptic Plasma Membranes, J. Neurochem., 48, 1699-1708 (1987)]. The SPM were stored at a concentration of 10-15 mg/ml in 0.32 M sucrose, 0.5 mM EDTA, 1 mM MgSO4, 5 mM Tris/SO4, pH 7.4, under liquid nitrogen. The identity and purity of the subcellular fractions were confirmed by both electron microscopy and marker enzymes. Protein concentrations were determined by using a modification of the method of Lowry [Ohnishi, S. T. and Barr, J. K., "A Simplified Method of Quantitating Proteins Using the Biuret and Phenol Reagents", Anal. Biochem., 86, 193-197 (1978)]. The SPM were thawed at room temperature, diluted twenty-fold with 50 mM Tris/acetate, pH 7.4, incubated at 37° C. for 30 minutes, and centrifuged at 100,000 g for 15 minutes. The dilution, incubation, and centrifugation was repeated a total of three times. This general method involved adding 12.5 nM of the L-[^3 H]glutamate radioligand to the appropriate concentration of the test compound and initiating the assay by the addition of ice cold SPM (0.2-0.45 mg). The binding assays were performed in 1.5 ml centrifuge tubes with the total volume adjusted to 1.0 ml. Additions of test compounds were made in 50 mM Tris/acetate, pH 7.4 and incubations were carried out at 0°-4° C. The incubation time for the NMDA binding assay was 10 minutes. To terminate the incubation, the samples were centrifuged for 15 minutes at 12,000 g and 4° C. in a Beckman Microfuge 12. The supernatant was aspirated and the pelleted membranes dissolved in Beckman Ready-Protein scintillation cocktail and the samples counted on a Beckman LS 5800 or 3801 liquid scintillation counter with automatic corrections for quenching and counting efficiency. Nonspecific binding was defined as the residual binding in the presence of 0.5 mM NMDA and was typically 15-25% of the total binding in the NMDA binding assay. Radioligand binding to the SPM was analyzed using Scatchard and Hill transformations and the Ki values of the compounds determined using logit-log transformations. Calculations and regression analysis were performed using templates developed for Lotus 1, 2, 3 as previously described [Pullan, L. M. "Automated Radioligand Receptor Binding Analysis with Templates for Lotus", Computer Appln. Biosci., 3 131 (1987)]. Binding results are reported in Table II for example compounds of the invention.

[3] = 10 nM [3H]glycine, pH 7.4, rat forebrain SPM, read-out: Ki apparent, Gly

SMILES	Ki [1, 3] [µM]	Ki [2] [µM]	Ki [1] [µM]
O=C(O)Cc1c(CO)[nH]c2cc(Cl)ccc12	> 30	–	–
O=C(O)Cc1c(C(=O)O)[nH]c2ccc(Cl)cc12 [Compound No. 3, 2-carboxy-5-chloro-3-indoleacetic acid]	11.7	> 100	–
O=C(O)c1[nH]c2cc(Cl)ccc2c1O [Compound No. 11, 6-chloro-3-hydroxyindole-2-carboxylic acid]	> 100	> 100	–
O=C(O)c1[nH]c2ccccc2c1CO [Compound No. 12, 3-hydroxymethylindole-2-carboxylic acid]	> 100	> 100	–
Cn1c(C(=O)O)c(CC(=O)O)c2ccccc21 [compound 2, 2-carboxy-1-methyl-3-indoleacetic acid]	> 100	> 100	–
O=C(O)Cc1c(C(=O)O)[nH]c2ccc(Br)cc12 [compound 4, 5-bromo-2-carboxy-3-indoleacetic acid]	26.2	> 100	–
O=C(O)Cc1c(C(=O)O)[nH]c2ccc(F)cc12 [compound 5, 2-carboxy-5-fluoro-3-indoleacetic acid]	17.5	> 100	–
O=C(O)CCc1c(C(=O)O)[nH]c2ccccc12 [compound 7, 2-carboxy-3-indolepropanoic acid]	> 100	> 100	–
O=C(O)CCCc1c(C(=O)O)[nH]c2ccccc12 [compound 8, 2-carboxy-3-indolebutanoic acid]	> 100	> 100	–
O=C(O)CCCCc1c(C(=O)O)[nH]c2ccccc12 [compound 9, 2-carboxy-3-indolepentanoic acid]	> 100	> 100	–
CCC(C(=O)O)c1c(C(=O)O)[nH]c2ccccc12 (stereo not shown) [compound 10, 2-(2-carboxy-3-indole)butanoic acid]	> 100	> 100	–
O=C(O)c1cc2ccccc2[nH]1 [compound 13, indole-2-carboxylic acid]	–	> 100	> 100
O=C(O)c1cc2cc(Cl)ccc2[nH]1 [compound 14, 5-chloroindole-2-carboxylic acid]	> 100	> 100	–
O=C(O)c1cc2cc(F)ccc2[nH]1 [compound 15, 5-fluoroindole-2-carboxylic acid]	–	> 100	–
O=C(O)c1cc2cc(Br)ccc2[nH]1 [compound 16, 5-bromoindole-2-carboxylic acid]	> 100	> 100	–
Cc1ccc2[nH]c(C(=O)O)cc2c1 [compound 17, 5-methylindole-2-carboxylic acid]	> 100	> 100	–
COc1ccc2[nH]c(C(=O)O)cc2c1 [compound 18, 5-methoxyindole-2-carboxylic acid]	> 100	> 100	–
CCOC(=O)Cc1c(C(=O)OCC)[nH]c2ccccc12 [compound 19, ethyl 2-carboethoxy-3-indoleacetate]	> 100	> 100	–
O=C(O)c1[nH]c2ccccc2c1CCO [compound 20, 3-(2-hydroxyethyl)indole-2-carboxylic acid]	> 10	–	–
Cc1cc2c(CC(=O)O)c(C(=O)O)[nH]c2cc1Cl [compound 21, 2-carboxy-6-chloro-5-methylindole-3-acetic acid]	> 10	–	–
CCOC(=O)Cc1c(C(=O)OCC)[nH]c2cc(Cl)ccc12 [compound 22, ethyl 2-carboethoxy-6-chloro-3-indoleacetate]	> 100	–	–
O=C1OCCc2c1[nH]c1ccccc21 [compound 23, 4,9-dihydropyrano[3,4-b]indol-1(3H)-one]	> 100	–	–

Second part, led by results:

Ki [1, 3] [µM]	Ki [2] [µM]	SMILES	Ki [1] [µM]
–	> 100	O=Cc1c(C(=O)O)[nH]c2ccccc12 [compound 24, 3-formylindole-2-carboxylic acid]	–
> 30	–	CC(=O)Cc1c(C(=O)O)[nH]c2ccccc12 [compound 25, 3-(2-oxopropyl)indole-2-carboxylic acid]	–
> 20	–	O=C(O)c1cc2c(C(=O)O)cccc2[nH]1 [compound 26, 4-carboxyindole-2-carboxylic acid]	–
> 20	–	O=C(O)c1cc2c(OCc3ccccc3)cccc2[nH]1 [compound 27, 4-benzyloxyindole-2-carboxylic acid]	–
> 20	–	O=C(O)c1cc2c(O)cccc2[nH]1 [compound 28, 4-hydroxyindole-2-carboxylic acid]	–
> 30	–	O=C(O)Cc1c(C(=O)O)[nH]c2c(Cl)cccc12 [compound 29, 2-carboxy-7-chloroindole-3-acetic acid]	–
> 30	–	CCOC(=O)Cc1c(C(=O)OCCCN(C)C)[nH]c2cc(Cl)ccc12 [compound 34, ethyl 2-(3-dimethylaminopropyloxycarbonyl)-6-chloro-3-indole acetate]	–
> 30	–	CN(C)C(=O)Cc1c(C(=O)O)[nH]c2cc(Cl)ccc12 [compound 36, 2-carboxy-6-chloro-3-indole acetic acid 3-dimethyl amide]	–
11.4	–	O=C(Cc1c(C(=O)O)[nH]c2cc(Cl)ccc12)NCCO [compound 39, 2-carboxy-6-chloro-3-indoleacetic acid 3-(2-hydroxyethyl)amide]	–
> 30	–	CN(C)CCCNC(=O)Cc1c(C(=O)O)[nH]c2cc(Cl)ccc12 [compound 40, 2-carboxy-6-chloro-3-indoleacetic acid 3-(3-dimethylaminopropyl)amide]	–
7	–	CCCOC(=O)Cc1c(C(=O)O)[nH]c2cc(Cl)ccc12 [compound 42, propyl 2-carboxy-6-chloro-3-indoleacetate]	–
0.47	–	O=C(Cc1c(C(=O)O)[nH]c2cc(Cl)ccc12)NCCc1ccccc1 [compound 45, 2-carboxy-6-chloro-3-indoleacetic acid 3-phenylethylamide]	–
> 10	–	CCOC(=O)c1[nH]c2cc(Cl)ccc2c1CCCl [compound 47, ethyl 6-chloro-3-(2-chloroethyl)-2-indolecarboxylate]	–
> 30	–	CCOC(=O)Cc1c(C=O)[nH]c2cc(Cl)ccc12 [compound 51, ethyl 6-chloro-2-formyl-3-indole acetate]	–
> 30	–	CCOC(=O)Cc1c(CO)[nH]c2cc(Cl)ccc12 [compound 52, ethyl 6-chloro-2-hydroxymethyl-3-indoleacetate]	–
> 30	–	CN(C)CCNC(=O)Cc1c(C(=O)NCCN(C)C)[nH]c2cc(Cl)ccc12 [compound 54, 2-carboxy-6-chloro-3-indole acetic acid bis-2-dimethyl aminoethylamide]	–
> 30	–	CCOC(=O)c1[nH]c2cc(Cl)ccc2c1CC(N)=O [compound 55, 2-carboethoxy-6-chloro-3-indoleacetamide]	–
